In EP0774249A2, “Topical composition containing specific flavanones” (UNILEVER PLC, priority 1995, dated 1997):
Entries after “also recorded” stand apart in the source; their conditions may differ. Read-outs that look alike come from different tables or passages of the source.

Test system: Human Epidermal Keratinocytes
Assay: Transglutaminase (TG-1) assay, ELISA on cultured keratinocytes
Format: cell-based
Conditions: for Effects on Differentiation (TG-1): after 72 hour incubation; for morphology of the cells / cytotoxic effect on keratinocytes: observation of the cultures; for TG-1 Expressed Day 1 / TG-1 Expressed Day 2: concentrations not given; for TG-1 production DAY 2 / TG-1 production DAY 3 / TG-1 production DAY 1: absorbance OD 490nm; for TG-1 production DAY 2: control 0.134 (Exp. 1), 0.152 (Exp. 2), 0.174 (Exp. 3); for TG-1 production DAY 3: control 0.143 (Exp. 1), 0.200 (Exp. 2), 0.218 (Exp. 3); for TG-1 production DAY 1: control 0.154 (Exp. 1), 0.179 (Exp. 2), 0.181 (Exp. 3); for stimulation of differentiation (TG-1 production) against the control: 10, 25, 50 µg/mL, days 1 to 3 (Table 2); for activity at 10 µg/mL / activity at 25 µg/mL / activity at 50 µg/mL: Homo sapiens, Keratinocyte; for TG-1 expressed on Day 1: single flavanone
[1] = Experiment 1, control 0.17 ± 0.01
[2] = Experiment 1, control 0.21 ± 0.02
[3] = Experiment 2, control 0.16 ± 0.01
[4] = Experiment 2, control 0.20 ± 0.01
[5] = 24 h, 10 µg/mL, read-out: DAY 1 (% over control) (converted)
[6] = 24 h, 25 µg/mL, read-out: DAY 1 (% over control) (converted)
[7] = 24 h, 50 µg/mL, read-out: DAY 1 (% over control) (converted)
[8] = 48 h, 10 µg/mL, read-out: DAY 2 (% over control) (converted)
[9] = 48 h, 25 µg/mL, read-out: DAY 2 (% over control) (converted)
[10] = 48 h, 50 µg/mL, read-out: DAY 2 (% over control) (converted)
[11] = 72 h, 10 µg/mL, read-out: DAY 3 (% over control) (converted)
[12] = 72 h, 25 µg/mL, read-out: DAY 3 (% over control) (converted)
[13] = 72 h, 50 µg/mL, read-out: DAY 3 (% over control) (converted)
[14] = 5μg/mL, control 0.17 (Exp. 1), 0.19 (Exp. 3)
[15] = 10μg/mL, control 0.17 (Exp. 1), 0.19 (Exp. 3)

O=c1cc(-c2ccc(O)cc2)oc2cc(O)cc(O)c12 [Apigenin, reference compound]
Effects on Differentiation (TG-1) (5 and 15 µg/ml): No effect | morphology of the cells / cytotoxic effect on keratinocytes (5 and 15 µg/ml): disrupted the cell membranes

CCCCCCCCCCCCC/C=C/C(O)C(CO)NC(C)=O (stereo not shown) [C2-Ceramide (Formula A)]
TG-1 Expressed Day 1 [1]: 0.15 ± 0.01^1 | TG-1 Expressed Day 2 [2]: 0.23 ± 0.02^3

CCCCCCCCCCCCCCCCN(CC(O)CO)C(C)=O (stereo not shown) [C2-Neoceramide (Formula F)]
TG-1 Expressed Day 1 [3]: 0.16 ± 0.01 | TG-1 Expressed Day 2 [4]: 0.21 ± 0.02

O=c1cc(-c2ccccc2)oc2cc(O)cc(O)c12 [Chrysin, reference compound]
Effects on Differentiation (TG-1) (5 and 15 µg/ml): No effect

O=c1ccc2ccccc2o1 [Coumarin, reference compound]
Effects on Differentiation (TG-1) (5 and 15 µg/ml): No effect

O=c1c(-c2ccc(O)cc2)coc2cc(O)ccc12 [Daidzein, reference compound]
stimulation or inhibition of differentiation processes, time course study (5 and 15 µg/ml): no effects | Effects on Differentiation (TG-1) (5 and 15 µg/ml): No effect | morphology of the cells / cytotoxic effect on keratinocytes (5 and 15 µg/ml): no morphological changes

Oc1cc(O)c2c(c1)O[C@H](c1ccc(O)c(O)c1)[C@H](O)C2 [Epicatechin, reference compound]
Effects on Differentiation (TG-1) (5 and 15 µg/ml): No effect

O=C1CC(c2ccc(O)c(O)c2)Oc2cc(O)cc(O)c21 (stereo not shown) [Eriodictyol]
TG-1 production DAY 2 (10 µg/mL): 0.194 ± 0.01 | TG-1 production DAY 3 (10 µg/mL): 0.264 ± 0.03 | TG-1 production DAY 1 (10 µg/mL): 0.178 ± 0.02 | TG-1 production DAY 2 (25 µg/mL): 0.222 ± 0.05 | TG-1 production DAY 3 (25 µg/mL): 0.314 ± 0.07 | TG-1 production DAY 1 (25 µg/mL): 0.211 ± 0.04 | TG-1 production DAY 2 (50 µg/mL): 0.174 ± 0.02 | TG-1 production DAY 3 (50 µg/mL): 0.193 ± 0.05 | TG-1 production DAY 1 (50 µg/mL): 0.186 ± 0.02 | Effects on Differentiation (TG-1) (5 and 15 µg/ml): Increase TG-1 | Effects on Differentiation (TG-1) (5 and 15 µg/ml, listed as eriodictyol): stimulated TG-1 production | stimulation of differentiation (TG-1 production) against the control: stimulated differentiation to the same extent or higher than the control | activity at 10 µg/mL [5]: 99% | activity at 25 µg/mL [6]: 118% | activity at 50 µg/mL [7]: 104% | activity at 10 µg/mL [8]: 128% | activity at 25 µg/mL [9]: 146% | activity at 50 µg/mL [10]: 115% | activity at 10 µg/mL [11]: 132% | activity at 25 µg/mL [12]: 157% | activity at 50 µg/mL [13]: 97%

O=c1c(O)c(-c2ccc(O)c(O)c2)oc2cc(O)ccc12 [Fisetin, reference compound]
Effects on Differentiation (TG-1) (5 and 15 µg/ml): No effect

COc1ccc(-c2coc3cc(O)ccc3c2=O)cc1 [Formonoetin, reference compound]
Effects on Differentiation (TG-1) (5 and 15 µg/ml): No effect

COc1ccc(C2CC(=O)c3c(O)cc(O)cc3O2)cc1O (stereo not shown) [Hesperetin]
TG-1 expressed on Day 1 [14]: 0.19 ± 0.01 ^1 | TG-1 expressed on Day 1 [15]: 0.19 ± 0.02 ^1 | TG-1 production DAY 2 (10 µg/mL): 0.155 ± 0.01 | TG-1 production DAY 3 (10 µg/mL): 0.190 ± 0.01 | TG-1 production DAY 1 (10 µg/mL): 0.142 ± 0.01 | TG-1 expressed on Day 1 (20μg/mL, control 0.19 (Exp. 2)): 0.20 ± 0.02 | TG-1 production DAY 2 (25 µg/mL): 0.167 ± 0.02 | TG-1 production DAY 3 (25 µg/mL): 0.182 ± 0.01 | TG-1 production DAY 1 (25 µg/mL): 0.148 ± 0.02 | TG-1 expressed on Day 1 (40μg/mL, control 0.19 (Exp. 2)): 0.20 ± 0.01 | TG-1 production DAY 2 (50 µg/mL): 0.213 ± 0.04 | TG-1 production DAY 3 (50 µg/mL): 0.196 ± 0.01 | TG-1 production DAY 1 (50 µg/mL): 0.154 ± 0.04 | Effects on Differentiation (TG-1) (5 and 15 µg/ml): Increase TG-1 | Effects on Differentiation (TG-1) (5 and 15 µg/ml, listed as hesperetin): effective keratinocyte pro-differentiating agents; also recorded: stimulated TG-1 production | stimulation of differentiation (TG-1 production) against the control: stimulated differentiation to the same extent or higher than the control | TG-1 Expressed Day 1 [1]: 0.14 ± 0.01^1 | TG-1 Expressed Day 2 [2]: 0.22 ± 0.02 | TG-1 Expressed Day 1 [3]: 0.15 ± 0.01^2 | TG-1 Expressed Day 2 [4]: 0.21 ± 0.02 | activity at 10 µg/mL [5]: 92% | activity at 25 µg/mL [6]: 96% | activity at 50 µg/mL [7]: 100% | activity at 10 µg/mL [8]: 116% | activity at 25 µg/mL [9]: 125% | activity at 50 µg/mL [10]: 159% | activity at 10 µg/mL [11]: 133% | activity at 25 µg/mL [12]: 127% | activity at 50 µg/mL [13]: 137%

COc1ccc([C@@H]2CC(=O)c3c(O)cc(O[C@@H]4O[C@H](CO[C@@H]5O[C@@H](C)[C@H](O)[C@@H](O)[C@H]5O)[C@@H](O)[C@H](O)[C@H]4O)cc3O2)cc1O [Hesperidin, reference compound]
Effects on Differentiation (TG-1) (5 and 15 µg/ml): No effect

O=C1C[C@@H](c2ccc(O)cc2)Oc2cc(O)cc(O)c21 [Naringenin]
TG-1 expressed on Day 1 [14]: 0.19 ± 0.02 | TG-1 expressed on Day 1 [15]: 0.21 ± 0.01 ^5 | TG-1 production DAY 2 (10 µg/mL): 0.149 ± 0.01 | TG-1 production DAY 3 (10 µg/mL): 0.159 ± 0.01 | TG-1 production DAY 1 (10 µg/mL): 0.147 ± 0.01 | TG-1 production DAY 2 (25 µg/mL): 0.200 ± 0.03 | TG-1 production DAY 3 (25 µg/mL): 0.171 ± 0.02 | TG-1 production DAY 1 (25 µg/mL): 0.207 ± 0.02 | TG-1 production DAY 2 (50 µg/mL): 0.186 ± 0.01 | TG-1 production DAY 3 (50 µg/mL): 0.169 ± 0.01 | TG-1 production DAY 1 (50 µg/mL): 0.156 ± 0.01 | Effects on Differentiation (TG-1) (5 and 15 µg/ml): Increase TG-1 | Effects on Differentiation (TG-1) (5 and 15 µg/ml, listed as naringenin): effective keratinocyte pro-differentiating agents; also recorded: stimulated TG-1 production | stimulation of differentiation (TG-1 production) against the control: stimulated differentiation to the same extent or higher than the control | activity at 10 µg/mL [5]: 99% | activity at 25 µg/mL [6]: 134% | activity at 50 µg/mL [7]: 101% | activity at 10 µg/mL [8]: 111% | activity at 25 µg/mL [9]: 149% | activity at 50 µg/mL [10]: 139% | activity at 10 µg/mL [11]: 111% | activity at 25 µg/mL [12]: 120% | activity at 50 µg/mL [13]: 118%

CC1OC(OC2C(Oc3cc(O)c4c(c3)OC(c3ccc(O)cc3)CC4=O)OC(CO)C(O)C2O)C(O)C(O)C1O (stereo not shown) [Naringin, reference compound]
Effects on Differentiation (TG-1) (5 and 15 µg/ml): No effect | Effects on Differentiation (TG-1) (5 and 15 µg/ml, listed as naringin): not an effective material for promoting the differentiation of keratinocytes

O=c1c(O)c(-c2ccc(O)c(O)c2)oc2cc(O)cc(O)c12 [Quercetin, reference compound]
Effects on Differentiation (TG-1) (5 and 15 µg/ml): No effect

O=C1c2c(O)cc(O)cc2O[C@H](c2ccc(O)c(O)c2)[C@H]1O [Taxifolin]
TG-1 production DAY 2 (10 µg/mL): 0.204 ± 0.04 | TG-1 production DAY 3 (10 µg/mL): 0.231 ± 0.03 | TG-1 production DAY 1 (10 µg/mL): 0.153 ± 0.02 | TG-1 production DAY 2 (25 µg/mL): 0.212 ± 0.03 | TG-1 production DAY 3 (25 µg/mL): 0.226 ± 0.02 | TG-1 production DAY 1 (25 µg/mL): 0.175 ± 0.04 | TG-1 production DAY 2 (50 µg/mL): 0.159 ± 0.01 | TG-1 production DAY 3 (50 µg/mL): 0.199 ± 0.04 | TG-1 production DAY 1 (50 µg/mL): 0.150 ± 0.02 | Effects on Differentiation (TG-1) (5 and 15 µg/ml): Increase TG-1 | Effects on Differentiation (TG-1) (5 and 15 µg/ml, listed as taxifolin): stimulated TG-1 production | stimulation of differentiation (TG-1 production) against the control: stimulated differentiation to the same extent or higher than the control | activity at 10 µg/mL [5]: 85% | activity at 25 µg/mL [6]: 97% | activity at 50 µg/mL [7]: 84% | activity at 10 µg/mL [8]: 117% | activity at 25 µg/mL [9]: 122% | activity at 50 µg/mL [10]: 92% | activity at 10 µg/mL [11]: 106% | activity at 25 µg/mL [12]: 104% | activity at 50 µg/mL [13]: 92%
